# Laboratory results as given in PMC12337082 (Journal of Biochemical and Molecular Toxicology, 2025).
# What was measured:
# PGE2 release [1] = test: PGE2 ELISA, MCF‐7; type: cell-based, human; settings: MCF‐7, 0.5 mM, 24 h
# Experimental: (§1) PGE2 ELISA kit (ENZO, ADI‐900‐001) was used to determine prostaglandin synthesis levels. MCF‐7 and MDA‐MB‐231 breast cancer cells were cultured at a density of 1 × 10^6 cells/well in a 6‐well culture dish. […] Following 24 h of incubation, the medium was replaced with a fresh one, 10 µM arachidonic acid was added, and it was further incubated for 1 h. The PGE2 levels were determined according to the kit protocol.
# [2] = test system: L‐929 mouse fibroblast cell line; test: MTT cell viability assay, L‐929 control fibroblasts; type: cell-based; settings: Mus musculus
# Text: (§2) MCF‐7, MDA‐MB‐231, and L‐929 mouse fibroblast cell lines were obtained from the American Type Culture Collection (ATCC, Manassas, Virginia, USA). MCF‐7 is a hormone‐responsive, differentiated mammary epithelium cell line with an ER+, PR+, and HER2‐ pattern (ATCC, HTB‐22). MDA‐MB‐231 is a triple‐negative differentiated mammary epithelium cell line (ATCC, HTB‐26). The L‐929 mouse fibroblast cell line is derived from the normal subcutaneous connective tissue of a mouse and is commonly used in cytotoxicity assays (ATCC, CCL‐1). All cell lines were cultured in DMEM medium (Dulbecco's Modified Eagle Medium, Gibco), supplemented with 10% fetal bovine serum (Gibco), 1% glutamine, and penicillin/streptomycin (Gibco) in a humidified atmosphere containing 5% CO2 at 37°C. Cell viability was tested using Trypan blue staining.
# (§3) The MTT [3‐(4,5‐dimethylthiazol‐2‐yl)−2,5‐diphenyltetrazolium bromide] assay is a colorimetric assay for determining cell metabolic activity. In the MTT assay, the yellow dye MTT that dissolves in water is changed by mitochondrial reductase into a purple formazan that is non‐soluble. The water‐insoluble formazan produced is solubilized in a solubilization buffer, and absorbances are detected.
# (§4) In 96‐well plates, the cells were cultivated at a density of 5 × 10^3 cells/well using 100 µL medium. […] 10 μL of the MTT labeling reagent (final concentration 0.5 mg/mL) were added to each well at the end of the incubation periods, and the wells were incubated for an additional 4 h. Next, each well received 100 μL of solubilization buffer (10% SDS in 0.01 M HCl) and was overnight incubated, and the absorbance of formazan products was evaluated at 550 nm using a multi‐mode microplate reader (Synergy H1, Biotech Instruments Inc., Vermont, USA). The results were normalized relative to the absorbances of calculated percent concentrations of DMSO. All tests involved three replicates with three independent experiments.
# (§5) All statistical evaluations, including t‐tests and IC50 values, were calculated using the GraphPad Prism software tool (v6.0, GraphPad Software Inc., San Diego, USA). Statistical significance was defined as p ˂ 0.05 (*p < 0.05, **p < 0.01, ***p < 0.001, ****p < 0.0001).
# MDA‐MB‐231 [3] = test: Annexin V/PI staining, Tali image‐based cytometry, MDA‐MB‐231; type: cell-based, human; settings: MDA‐MB‐231, 24 h
# Text: (§6) To assess apoptosis and cell death, cells were stained with Annexin V‐PI dyes (Tali Apoptosis Kit‐Annexin V Alexa Fluor 488 and PI‐, Molecular Probes A10788, Invitrogen) and quantified using Tali Image‐Based Cytometer (Invitrogen) and fluorescence microscopy (Olympus CKX41 Inverted Phase Contrast Fluorescence Microscope furbished with reflected fluorescence illuminator CKX‐RFA).
# (§7) To assess whether our compounds produce their cytotoxic effects through induction of apoptosis, apoptosis was investigated using Annexin V/PI labeling and MMP methods (Figures 4A−C). In addition, by utilizing TALI image‐based cytometry and fluorescent microscopy, the number of cells was analyzed for different concentrations of agents (Table 4).
# [4] = test system: MCF‐7, MDA‐MB‐231, and L‐929; test: MTT cell viability assay, statements over all cell lines; type: cell-based
# Text: as §2, §3, §4
# All statistical evaluations, including t‐tests and IC50 values, were calculated using the GraphPad Prism software tool (v6.0, GraphPad Software Inc., San Diego, USA). […]
# Leukemia = test system: Leukemia; set-up: method as in Nakamura et al. (2004) [60]; settings: 72 h, ref Nakamura et al. (2004) [60]; cited from earlier work
# MDA‐MB‐231 [5] = test: MTT cell viability assay, MDA‐MB‐231; type: cell-based, human; settings: Homo sapiens, MTT
# Text: as §2, §3, §4, §5
# [6] = test system: MCF‐7, MDA‐MB‐231, and L‐929 cells; test: Mitochondrial membrane potential (JC‐1) apoptosis assay, statements over all cell lines; type: cell-based; settings: MMP assay, similar levels for all cells including L‐929
# Experimental: Apoptosis was also investigated by evaluating mitochondrial membrane potential changes (MMP assay). MCF‐7, MDA‐MB‐231, and L‐929 cells were stained with JC‐1 dye according to the manufacturer's protocols (JC‐1 MMP Assay Kit, KA1324, Abnova). The apoptotic to healthy cell ratio was calculated using absorbances collected from two different fluorescence channels (535/595 for healthy cells, 485/535 for apoptotic cells) (Synergy H1, Biotech Instruments Inc., Vermont, USA).
# MCF‐7 [7] = test: MTT cell viability assay, MCF‐7; type: cell-based, human; settings: Homo sapiens, MCF7, MTT
# Text: as §2, §3, §4, §5
# SSC‐9 skin cancer = test system: SSC‐9 skin cancer; set-up: method as in Abo Aasy et al. (2019) [62]; settings: 24 h, ref Abo Aasy et al. (2019) [62]; cited from earlier work
# PGE2 release [8] = test: PGE2 ELISA, MDA‐MB‐231; type: cell-based, human; settings: MDA‐MB‐231, 0.5 mM, 24 h
# Experimental: as §1
# MCF‐7 [9] = test: Annexin V/PI staining, Tali image‐based cytometry, MCF‐7; type: cell-based, human; settings: MCF‐7, 24 h
# Text: as §6, §7
smiles,measurement,setting,value
"CCc1cccc2c3c([nH]c12)C(CC)(CC(=O)O)OCC3 (stereo not shown) [Etodolac, 2‐(1,8‐diethyl‐1,3,4‐tetrahydropyrano [3,4‐b]indol‐1‐yl) acetic acid, reference compound]",Inhibition of PGE2 release,PGE2 release [1],57%
same,IC50,"[2]; L929, 24 h, L‐929, 24 h",735 ± 3.7 µM
same,IC50,"[2]; L929, 48 h, L‐929, 48 h",751 ± 9.5 µM
same,IC50,"[2]; L929, 72 h, L‐929, 72 h",622 ± 4.7 µM
same,Apoptotic cells,MDA‐MB‐231 [3]; 100 µM,1%
same,Dead cells,MDA‐MB‐231 [3]; 100 µM,4%
same,Live cells,MDA‐MB‐231 [3]; 100 µM,95%
same,Apoptotic cells,MDA‐MB‐231 [3]; 250 µM,1%
same,Dead cells,MDA‐MB‐231 [3]; 250 µM,5%
same,Live cells,MDA‐MB‐231 [3]; 250 µM,94%
same,Apoptotic cells,MDA‐MB‐231 [3]; 500 µM,6%
same,Dead cells,MDA‐MB‐231 [3]; 500 µM,10%
same,Live cells,MDA‐MB‐231 [3]; 500 µM,84%
same,Apoptotic cells,MDA‐MB‐231 [3]; 1000 µM,11%
same,Dead cells,MDA‐MB‐231 [3]; 1000 µM,13%
same,Live cells,MDA‐MB‐231 [3]; 1000 µM,76%
same,Concentration at which viability of the cells was reduced,[4]; all cell lines including healthy controls,0.2−0.5 mM
same,IC50,[4]; read-out: IC50 range,500 to 1000 µM
same,IC50,Leukemia,50 to 100 µM
same,IC50,"MDA‐MB‐231 [5]; MDA-MB-231, 24 h, MDA‐MB‐231, 24 h",740 ± 1.65 µM
same,IC50,"MDA‐MB‐231 [5]; MDA-MB-231, 48 h, MDA‐MB‐231, 48 h",699 ± 4.61 µM
same,IC50,"MDA‐MB‐231 [5]; MDA-MB-231, 72 h, MDA‐MB‐231, 72 h",578 ± 3.65 µM
same,Concentration after which apoptotic increases became detectable,[6],0.5−1.0 mM
same,IC50,"MCF‐7 [7]; MCF‐7, 24 h",750 ± 4.2 µM
same,IC50,"MCF‐7 [7]; MCF‐7, 48 h",731 ± 1.37 µM
same,IC50,"MCF‐7 [7]; MCF‐7, 72 h",555 ± 2.42 µM
same,IC50,SSC‐9 skin cancer,983 µM
same,Inhibition of PGE2 release,PGE2 release [8],38%
same,Apoptotic cells,MCF‐7 [9]; 100 µM,1%
same,Dead cells,MCF‐7 [9]; 100 µM,5%
same,Live cells,MCF‐7 [9]; 100 µM,94%
same,Apoptotic cells,MCF‐7 [9]; 250 µM,2%
same,Dead cells,MCF‐7 [9]; 250 µM,6%
same,Live cells,MCF‐7 [9]; 250 µM,92%
same,Apoptotic cells,MCF‐7 [9]; 500 µM,7%
same,Dead cells,MCF‐7 [9]; 500 µM,9%
same,Live cells,MCF‐7 [9]; 500 µM,84%
same,Apoptotic cells,MCF‐7 [9]; 1000 µM,5%
same,Dead cells,MCF‐7 [9]; 1000 µM,8%
same,Live cells,MCF‐7 [9]; 1000 µM,87%
